According to patent publication US9140688B2, “Sperm staining and sorting methods” (INGURAN, LLC, priority 2011, dated 2015):
Read-outs that look alike come from different tables or passages of the source.

Legend:
[1] = solvent water, cited from earlier work
[2] = test system: X- and Y-chromosome bearing bovine sperm stained with Hoechst 33342; test: Split quality: height of peak divided by height of valley (PV), flow cytometry of stained bovine sperm; type: cell-based; details: for Height of Peak/Height of Valley: Ex 5; for Height of Peak Divided by Height of Valley: Ex 7, Phenol Red 620 μM with Yellow 6 62 μM
[3] = test system: membrane compromised bovine sperm stained with Hoechst 33342; test: Dead quenching: dead gate intensity divided by live gate intensity, flow cytometry of stained bovine sperm; type: cell-based; details: for Dead Intensity (dead gate intensity divided by live gate intensity): Ex 5; for Intensity (dead gate): Hoechst 48 μM
From the text: FIG. 4 illustrates an example bivariate plot and univariate histogram of the parameters measured during sex selection by a FACS on a flow cytometer. […] Without a dead quenching dye, both populations of sperm would overlap to a large extent, with unpredictable variations in the dead sperm.
The entire ejaculate of sperm was suspended in first staining buffer, specifically a 7.4 pH TALP described in TABLE 1, to a concentration of 160×10^6 sperm per mL (determined on nucleocounter) and divided into three aliquots of about 20 mL into 50 mL Falcon tubes and pre-warmed for 10 minutes at 34° C. The DNA selective fluorescent dye, Hoechst 33342, was added and samples were held at 34° C. for 60 minutes. 3 different Hoechst 33342 Stain Levels were used=12 μL, 14 μL and 16 μL per 2 mL (effective concentrations of 48 μM, 56 μM, 64 μM).
Preparation of the second buffer including the dead quenching dye—A 2 L bag of TALP, described in TABLE 1, was adjusted to pH 5.60 using HCl and then sterile filtered. […] For each of the four dyes tested (R40—red food dye No. 40, Y5—yellow food dye No. 5, Y6—yellow food dye No. 6 and PR—phenol red), an appropriate number of milligrams of each powder was placed in a Erlenmeyer Flask and then an exact amount of TALP pH 5.60 was added to create a […] concentration of the dye. The result was a working TALP stock for each dye with a 100% (125 μM) relative amount of dye 50% relative (62.5 μM) and 20% relative (25 μM) solutions were made by dilution of 100% by TALP pH 5.60.
After this “bulk” staining for 60 minutes, 1 mL aliquots of stained sperm were combined with 1 mL aliquots of the second buffer including the dead quenching dyes. Samples sat for approximately 30 minutes at room temperature before being analyzed on a MoFlo SX (Beckman Coulter, USA) sperm sorting flow cytometer. Event rates were held as close to 13,000 as possible at the point of data acquisition.
The total number of individual treatments was 42 tubes, each containing 2 mL of stained sample. The alignment of the sorter was established using nuclei and confirmed with live sample from the 50% Red 40 series. Once good alignment was established, each tube was placed on the sorter long enough to establish a stabile dead gate population (about 30 seconds) and then a screenshot was taken and saved as a .jpeg image. This approach of rapidly documenting each sample is used to assure the most consistent alignment between all samples. Realignment of sorter will not cause differences in the intensities of live and dead gate populations but will cause differences in split quality.
FIG. 4 illustrates an example histogram. The ratio of dead gate intensity divided by live gate intensity is created by dividing the distance “A” by the distance “B” shown as a percentage. Lower values mean higher levels of quenching. The ratio of peak height divided by valley height is created by dividing the distance “C” by the distance “D”. A value of 1.00 means “no split” while higher values mean “better splits”. […]

[4] = shorter-wavelength local maximum
[5] = dye 25 μM, Average of 12 and 14 μL series
[6] = dye 62.5 μM, Average of 12 and 14 μL series
[7] = dye 62.5 μM, Hoechst 12 μL/2 mL
[8] = dye 62.5 μM, Hoechst 14 μL/2 mL
[9] = dye 62.5 μM, Hoechst 16 μL/2 mL
[10] = dye 125 μM, Average of 12 and 14 μL series
[11] = dye 25 μM, Average of Hoechst levels
[12] = dye 62.5 μM, Average of Hoechst levels
[13] = dye 125 μM, Average of Hoechst levels

Compound: COc1cc(S(=O)(=O)O)c(C)cc1N=Nc1c(O)ccc2cc(S(=O)(=O)O)ccc12 [Red 40, 6-hydroxy-5-[(2-methoxy-5-methyl-4-sulfophenyl)azo]-2-naphthalenesulfonic acid, reference compound]
- Expected Absorption Maxima [1, 4]: 505 nm
- Height of Peak/Height of Valley [2, 5]: 2.00
- Height of Peak/Height of Valley ([2]; dye 25 μM, Hoechst 12 μL/2 mL): 2.05
- Height of Peak/Height of Valley ([2]; dye 25 μM, Hoechst 14 μL/2 mL): 1.94
- Height of Peak/Height of Valley ([2]; dye 25 μM, Hoechst 16 μL/2 mL): 1.00
- Height of Peak/Height of Valley [2, 6]: 1.64
- Height of Peak/Height of Valley [2, 7]: 1.65
- Height of Peak/Height of Valley [2, 8]: 1.62
- Height of Peak/Height of Valley [2, 9]: 1.00
- Height of Peak/Height of Valley [2, 10]: 1.88
- Height of Peak/Height of Valley ([2]; dye 125 μM, Hoechst 12 μL/2 mL): 1.75
- Height of Peak/Height of Valley ([2]; dye 125 μM, Hoechst 14 μL/2 mL): 2.00
- Height of Peak/Height of Valley ([2]; dye 125 μM, Hoechst 16 μL/2 mL): 1.21
- PV ([2]; Ex 6, dye 62.5 μM, resulting pH 6.70, Hoechst 48 μM): 1.00
- PV ([2]; Ex 8, Bull 1, Hoechst 60 μM, R40 20 μM alone): 1.62
- PV ([2]; Ex 8, Bull 2, Hoechst 44 μM, R40 20 μM alone): 1.54
- PV ([2]; Ex 9, Bull 3, Hoechst 60 μM, R40 50 μM, R3 0 μM): 1.44
- Dead Intensity (dead gate intensity divided by live gate intensity) [3, 11]: 68%
- Dead Intensity (dead gate intensity divided by live gate intensity) ([3]; dye 25 μM, Hoechst 12 μL/2 mL): 68%
- Dead Intensity (dead gate intensity divided by live gate intensity) ([3]; dye 25 μM, Hoechst 14 μL/2 mL): 72%
- Dead Intensity (dead gate intensity divided by live gate intensity) ([3]; dye 25 μM, Hoechst 16 μL/2 mL): 65%
- Dead Intensity (dead gate intensity divided by live gate intensity) [3, 12]: 52%
- Dead Intensity (dead gate intensity divided by live gate intensity) [3, 7]: 53%
- Dead Intensity (dead gate intensity divided by live gate intensity) [3, 8]: 53%
- Dead Intensity (dead gate intensity divided by live gate intensity) [3, 9]: 50%
- Dead Intensity (dead gate intensity divided by live gate intensity) [3, 13]: 38%
- Dead Intensity (dead gate intensity divided by live gate intensity) ([3]; dye 125 μM, Hoechst 12 μL/2 mL): 37%
- Dead Intensity (dead gate intensity divided by live gate intensity) ([3]; dye 125 μM, Hoechst 14 μL/2 mL): 41%
- Dead Intensity (dead gate intensity divided by live gate intensity) ([3]; dye 125 μM, Hoechst 16 μL/2 mL): 35%
- Intensity (dead gate) ([3]; Ex 6, dye 62.5 μM, resulting pH 6.70): 53%

Compound: O=S1(=O)OC(c2ccc(O)cc2)(c2ccc(O)cc2)c2ccccc21 [Phenol Red, phenolsulfonphthalein]
- Expected Absorption Maxima ([1]; longer-wavelength local maximum): 560 nm
- Expected Absorption Maxima [1, 4]: 440 nm
- Height of Peak/Height of Valley [2, 5]: 1.74
- Height of Peak/Height of Valley ([2]; dye 25 μM, Hoechst 12 μL/2 mL): 1.82
- Height of Peak/Height of Valley ([2]; dye 25 μM, Hoechst 14 μL/2 mL): 1.65
- Height of Peak/Height of Valley ([2]; dye 25 μM, Hoechst 16 μL/2 mL): 1.00
- Height of Peak/Height of Valley [2, 6]: 1.75
- Height of Peak/Height of Valley [2, 7]: 1.62
- Height of Peak/Height of Valley [2, 8]: 1.87
- Height of Peak/Height of Valley [2, 9]: 1.00
- Height of Peak/Height of Valley [2, 10]: 1.62
- Height of Peak/Height of Valley ([2]; dye 125 μM, Hoechst 12 μL/2 mL): 1.49
- Height of Peak/Height of Valley ([2]; dye 125 μM, Hoechst 14 μL/2 mL): 1.75
- Height of Peak/Height of Valley ([2]; dye 125 μM, Hoechst 16 μL/2 mL): 1.00
- PV ([2]; Ex 6, dye 125 μM, pH 7.40, Hoechst 48 μM): 1.27
- PV ([2]; Ex 6, dye 125 μM, resulting pH 6.70, Hoechst 48 μM): 1.00
- PV ([2]; Ex 6, dye 250 μM, pH 7.40, Hoechst 48 μM): 1.22
- PV ([2]; Ex 6, dye 250 μM, resulting pH 6.70, Hoechst 48 μM): 1.17
- PV ([2]; Ex 6, dye 500 μM, pH 7.40, Hoechst 48 μM): 1.51
- PV ([2]; Ex 6, dye 500 μM, resulting pH 6.70, Hoechst 48 μM): 1.25
- PV ([2]; Ex 6, dye 750 μM, pH 7.40, Hoechst 48 μM): 1.46
- PV ([2]; Ex 6, dye 750 μM, resulting pH 6.70, Hoechst 48 μM): 1.25
- PV ([2]; Ex 6, dye 875 μM, pH 7.40, Hoechst 48 μM): 1.44
- PV ([2]; Ex 6, dye 875 μM, resulting pH 6.70, Hoechst 48 μM): 1.20
- PV ([2]; Ex 6, dye 1250 μM, pH 7.40, Hoechst 48 μM): 1.30
- PV ([2]; Ex 6, dye 1250 μM, resulting pH 6.70, Hoechst 48 μM (understained)): 1.29
- Height of Peak Divided by Height of Valley ([2]; cells 100 million per mL): 1.49
- Height of Peak Divided by Height of Valley ([2]; cells 150 million per mL): 1.34
- Height of Peak Divided by Height of Valley ([2]; cells 250 million per mL): 1.43
- Height of Peak Divided by Height of Valley ([2]; cells 300 million per mL): 1.36
- PV ([2]; Ex 8, Bull 1, Hoechst 44 μM, PR 250 μM with Y6 50 μM): 1.52
- PV ([2]; Ex 8, Bull 1, Hoechst 44 μM, PR 500 μM alone): 1.97
- PV ([2]; Ex 8, Bull 1, Hoechst 60 μM, PR 375 μM alone): 2.38
- PV ([2]; Ex 8, Bull 1, Hoechst 60 μM, PR 375 μM with Y6 50 μM): 2.38
- PV ([2]; Ex 8, Bull 1, Hoechst 60 μM, PR 1200 μM with R40 20 μM): 2.12
- PV ([2]; Ex 8, Bull 2, Hoechst 28 μM, PR 375 μM alone): 1.96
- PV ([2]; Ex 8, Bull 2, Hoechst 28 μM, PR 375 μM with Y6 50 μM): 2.05
- PV ([2]; Ex 8, Bull 2, Hoechst 44 μM, PR 225 μM with Y6 50 μM): 1.56
- PV ([2]; Ex 8, Bull 2, Hoechst 44 μM, PR 375 μM with R40 20 μM): 1.64
- PV ([2]; Ex 8, Bull 2, Hoechst 44 μM, PR 375 μM with Y6 50 μM): 1.75
- PV ([2]; Ex 8, Bull 2, Hoechst 60 μM, PR 375 μM with Y6 50 μM): 1.69
- PV ([2]; Ex 8, Bull 2, Hoechst 60 μM, PR 375 μM with Y6 375 μM): 2.31
- effect of addition on split quality, in words ([2]; Ex 8, each Hoechst level, with Red 40 or Yellow 6): always improved split quality
- split enhancing effect compared to control, in words ([2]; Ex 10, 15, 45, 125 μM, averaged over 8 bulls): consistent split improvements at all concentrations after 30 minutes
- Dead Intensity (dead gate intensity divided by live gate intensity) [3, 11]: 94%
- Dead Intensity (dead gate intensity divided by live gate intensity) ([3]; dye 25 μM, Hoechst 12 μL/2 mL): 94%
- Dead Intensity (dead gate intensity divided by live gate intensity) ([3]; dye 25 μM, Hoechst 14 μL/2 mL): 97%
- Dead Intensity (dead gate intensity divided by live gate intensity) ([3]; dye 25 μM, Hoechst 16 μL/2 mL): 90%
- Dead Intensity (dead gate intensity divided by live gate intensity) [3, 12]: 87%
- Dead Intensity (dead gate intensity divided by live gate intensity) [3, 7]: 90%
- Dead Intensity (dead gate intensity divided by live gate intensity) [3, 8]: 90%
- Dead Intensity (dead gate intensity divided by live gate intensity) [3, 9]: 80%
- Dead Intensity (dead gate intensity divided by live gate intensity) [3, 13]: 79%
- Dead Intensity (dead gate intensity divided by live gate intensity) ([3]; dye 125 μM, Hoechst 12 μL/2 mL): 80%
- Dead Intensity (dead gate intensity divided by live gate intensity) ([3]; dye 125 μM, Hoechst 14 μL/2 mL): 80%
- Dead Intensity (dead gate intensity divided by live gate intensity) ([3]; dye 125 μM, Hoechst 16 μL/2 mL): 78%
- amount of dye needed for a similar dead gate intensity ratio as red food dye No. 40 and yellow food dye No. 6 ([3]; Ex 6): twelve times more
- Intensity (dead gate) ([3]; Ex 6, dye 125 μM, pH 7.40): 85%
- Intensity (dead gate) ([3]; Ex 6, dye 125 μM, resulting pH 6.70): 79%
- Intensity (dead gate) ([3]; Ex 6, dye 250 μM, pH 7.40): 76%
- Intensity (dead gate) ([3]; Ex 6, dye 250 μM, resulting pH 6.70): 70%
- Intensity (dead gate) ([3]; Ex 6, dye 500 μM, pH 7.40): 66%
- Intensity (dead gate) ([3]; Ex 6, dye 500 μM, resulting pH 6.70): 67%
- Intensity (dead gate) ([3]; Ex 6, dye 750 μM, pH 7.40): 56%
- Intensity (dead gate) ([3]; Ex 6, dye 750 μM, resulting pH 6.70): 55%
- Intensity (dead gate) ([3]; Ex 6, dye 875 μM, pH 7.40): 47%
- Intensity (dead gate) ([3]; Ex 6, dye 875 μM, resulting pH 6.70): 45%
- Intensity (dead gate) ([3]; Ex 6, dye 1250 μM, pH 7.40): 43%
- Intensity (dead gate) ([3]; Ex 6, dye 1250 μM, second buffer pH 5.60 (resulting pH 6.70)): 41%
